Measurements as given in patent US10940139B2, “Compounds that interact with the Ras superfamily for the treatment of cancers, inflammatory diseases, rasopathies, and fibrotic disease” (Shy Therapeutics LLC, priority 2017, dated 2021).

Target: KRas G12D/Q61H double mutant (Homo sapiens (Human), UniProt P01116, G12D/Q61H)
Assay: Ras GTP binding domain inhibition assay (labeled GTP)
Details: 20 μM compound; KRas G12D/Q61H double mutant
Description: Buffer-I: • 50 mM Tris, pH 7.5 • 150 mM NaCl (optional) • 1 mM MgCl2 • 1 mM DTT. • KRas G12D mutant protein was expressed as a His-tagged protein. Purified His-KRas G12D protein was diluted in buffer-I to a final concentration of 3-10 μg/ml. • 200 μl of the diluted His-KRas G12D protein was added to a nickel coated 96 well plate and incubated overnight at 4° C. • The next day, wells were washed 3× in 200 μl of Buffer-I. • Then 200 μl of Buffer-I were added to each well in the presence of 1% DMSO. • Tested compounds were added to the protein-coated wells at a concentration of 20 μM, and incubated for 3 hours at room temperature. While performing IC50 measurements a serial dilution of all tested concentrations was prepared.
Then 22 μl of Cy3-GTP or Cy5-GTP was added to each well. The labeled GTP was incubated for 45 min. at room temperature. • Following GTP incubation, wells were washed 3× in Buffer-I, and 200 μl of Buffer-I were added to each well. • Following washes, the amount of bound labeled-GTP was measured with an Eppendorf AF2200 plate reader.
By substituting KRas G12D mutant protein with KRas G12C mutant, KRas wild type, KRas Q61H mutant, KRas G12D/Q61H double mutant or KRas G12C/Q61H double mutant under the assay conditions described above, KRas G12C mutant KRas wild type, KRas Q61H mutant, KRas G12D/Q61H double mutant and KRas G12C/Q61H double mutant inhibition, respectively, were each determined.

KRas G12D/Q61H double mutant, sequence (P01116-2 other isoform, or with tags, fused parts or gaps G12D/Q61H): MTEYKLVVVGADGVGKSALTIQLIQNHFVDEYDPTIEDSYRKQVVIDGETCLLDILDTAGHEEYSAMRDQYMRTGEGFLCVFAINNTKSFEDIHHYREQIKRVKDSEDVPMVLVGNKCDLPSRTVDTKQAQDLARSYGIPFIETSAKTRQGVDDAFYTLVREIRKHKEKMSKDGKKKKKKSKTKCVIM

| % Inhibition at 20 μM of K-Ras mutant and wild-type protein, KRas G12D Q61H | Structure (SMILES) |
| --- | --- |
| A (1-25% inhibition) | O=C(Cc1ccc2c(c1)OCCO2)Nc1nc(-c2ccccn2)cs1 [drawing 3247] |

Same assay, conditions: 20 μM compound; KRas G12D/Q61H double mutant; read-out: % Inhibition at 20 μM of K-Ras mutant and wild-type protein, KRas G12D Q61H

| inhibition at 20 µM [%] | Structure (SMILES) |
| --- | --- |
| 25 to 50 | CCCOc1nc2ccccc2nc1N1CCN(c2ccccc2F)CC1 |
| 25 to 50 | CCOc1cc(CN(C(=O)CCc2nc(-c3ccsc3)no2)C2CC2)ccc1OC(F)(F)F |
| 25 to 50 | COc1cccc(-c2nc(C(=O)N3CCC(c4ccccc4)CC3)c[nH]2)c1OC |
| 25 to 50 | Cc1ccc(CN(Cc2ccco2)C(=O)C(c2ccccc2)c2ccccc2)o1 |
| 25 to 50 | Cc1ccccc1OCCN(C)c1ccc([N+](=O)[O-])c(OC(F)F)c1 |
| 1 to 25 | NC(=O)CCN1CCOC(c2nc(-c3ccccc3)cs2)C1 (stereo not drawn) |
| 25 to 50 | CCC(C)Oc1cc(-c2nc(C3CCCN3C(=O)OC(C)(C)C)no2)ccn1 (stereo not drawn) |
| 51 to 75 | CCC(C)(C)c1ccc(Oc2ccc(NC(=O)NS(=O)(=O)c3ccc(C)cc3)cc2)cc1 |
| 25 to 50 | COCCn1c(SC(C)c2nc(-c3cccnc3)no2)nc2cc(Cl)ccc2c1=O (stereo not drawn) |
| 25 to 50 | OC(CNC(Cc1ccccc1)c1nc(-c2ccccc2)no1)COCc1ccccc1Cl (stereo not drawn) |
| 25 to 50 | CCCOc1ccc2ccccc2c1CN(C)Cc1nnc(-c2ccccc2)o1 |
| 25 to 50 | CC(C)c1ccc(-c2nc(C(=O)NC(C)c3ccccn3)cs2)cc1 (stereo not drawn) |
| 1 to 25 | c1ccc(Cc2nc(CN(CCn3cccn3)Cc3csc(Cc4ccccc4)n3)cs2)cc1 |
| 25 to 50 | CCN(CC(=O)Nc1ccccc1OC)Cc1coc(-c2ccc(C)cc2C)n1 |
| 1 to 25 | CN(C)S(=O)(=O)c1ccc(OCCn2c(=O)c(N3CCCCC3)c(N)n(C)c2=O)cc1 |
| 51 to 75 | C=CCn1c(C)cc(C(=O)COC(=O)c2ccccc2Oc2ccccc2)c1C |
| 1 to 25 | COc1ccc(C)cc1-n1ccc(C(=O)N2CCCC2C(O)C(F)(F)F)n1 (stereo not drawn) |
| 25 to 50 | CC(C)=CC1C(C(=O)NCc2ccc(OCC(F)(F)F)nc2)C1(C)C (stereo not drawn) |

| Structure (SMILES) | inhibition at 20 µM [%] |
| --- | --- |
| CCN(C(=O)c1cccc(-n2cccn2)c1)c1ccc(C#N)c(Cl)c1 | 1 to 25 |

Same assay, conditions: 20 μM compound; read-out: % Inhibition at 20 μM KRas G12D Q61H

| Structure (SMILES) | inhibition at 20 µM [%] |
| --- | --- |
| CCC1COCCN1c1nc(-c2ccccn2)nc2scc(-c3ccccc3)c12 (stereo not drawn) | 25 to 50 |
| C#Cc1cccc(N(CC(=O)N2CCOCC2)C(=O)c2ccc(COc3ccccc3F)o2)c1 | 1 to 25 |
| O=C(c1cc(-c2ccccc2)nn1-c1ccccc1)N(Cc1nnc(-c2ccccc2Cl)o1)C1CC1 | 25 to 50 |
| COCCN(c1nc2ccccc2s1)S(=O)(=O)c1ccccc1 | 25 to 50 |
| COCC1CCN(C(=O)c2csc3c(O)nc(N)nc23)CC1 [drawing 2659] | 1 to 25 |
| Cc1cccc(Oc2ccc(S(=O)(=O)N3CCCCC3)cc2NCc2cc(C)on2)c1 | 1 to 25 |
| O=C(Nc1nnc(-c2ccccn2)[nH]1)c1ccc(Oc2ccccc2)cc1 | 25 to 50 |
| CC1(N)CCN(C(=O)c2csc3c(O)nc(N)nc23)CC1 | 1 to 25 |
| COc1ccnc(CN2CCOC(C)(c3ccccc3)C2)c1OC (stereo not drawn) | 25 to 50 |
| CN(Cc1ccc(Br)cc1)Cc1ccc(C(=O)NCC(F)(F)F)cc1 | 1 to 25 |
| Cc1noc(CN(Cc2ccc(C#N)cc2)Cc2cccc(F)c2)n1 | 1 to 25 |
| Nc1nc(O)c2scc(C(=O)N3CCC(N4CCOCC4)CC3)c2n1 [drawing 2662] | 1 to 25 |
| Cc1ccc(S(=O)(=O)NC(c2ccccc2)c2ccccn2)c(Cl)c1 (stereo not drawn) | 25 to 50 |
| CCN(Cc1ccc(S(=O)(=O)N(C)C)o1)c1ccccc1 | 25 to 50 |
| COc1ccc(CN(Cc2cccs2)C(=O)c2cc3ccccc3o2)cc1OC | 25 to 50 |
| CCc1cc(CNc2cc(C)c([N+](=O)[O-])c(C(=O)OC)c2)on1 | 25 to 50 |
| O=C(c1cccc(S(=O)(=O)N2CCOCC2)c1)N1N=C(c2ccccc2)CC1(O)C(F)(F)F (stereo not drawn) | 25 to 50 |
| CCOC(=O)NC1CCN(C(=O)c2csc3c(O)nc(N)nc23)CC1 [drawing 2667] | 1 to 25 |
| Fc1ccc(OCCSc2nnc(C3COc4ccccc4O3)o2)cc1 (stereo not drawn) | 1 to 25 |
| COc1ccccc1-c1nnc(CNc2ccc(Cl)cc2Cl)o1 | 1 to 25 |
| O=C(Nc1nc(-c2cccnc2)cs1)c1ccccn1 | 25 to 50 |
| Cc1cc(C)n(CCCNC(=O)c2cc(S(=O)(=O)N3CCCCC3)ccc2N2CCOCC2)n1 | 25 to 50 |
| C=CCc1ccc(OCCn2c(CN3CCOCC3)nc3ccccc32)c(OC)c1 | 25 to 50 |
| CC(C)Cc1noc(CNc2cc(C(F)(F)F)ccc2N2CCCC2)n1 | 25 to 50 |
| COc1ccc(-c2csc(C3CC3)n2)cc1Cl | 25 to 50 |
| CC(=O)N1CCC(C(=O)Nc2nnc(-c3ccccn3)[nH]2)CC1 | 25 to 50 |
| Cc1noc(CNc2cc(C(F)(F)F)ccc2N2CCCC2)n1 | 25 to 50 |

Further lines, results first:

| inhibition at 20 µM [%] | Structure (SMILES) |
| --- | --- |
| 25 to 50 | Cc1cnn(CCC(=O)Nc2nnc(-c3ccccn3)[nH]2)c1 |
| 25 to 50 | CCc1c(C)sc2[nH]c(-c3ccccn3)nc(=O)c12 |
| 25 to 50 | OC(CNc1nc(-c2ccccn2)nc2c1CCC2)COCC1CC1 (stereo not drawn) |
| 25 to 50 | O=C1COc2cc(C(=O)Nc3nc(-c4ccccn4)cs3)ccc2N1 |
| 25 to 50 | O=C(CCc1ccccc1F)Nc1nnc(-c2ccccn2)[nH]1 |
| 25 to 50 | N#Cc1ccc(CC(=O)Nc2ccnc(-c3ccccn3)n2)cc1 [drawing 2700] |
| 25 to 50 | O=C(Nc1nnc(-c2ccccn2)[nH]1)c1cc(Cl)sc1Cl |
| 25 to 50 | Cc1cccc2c(=O)[nH]c(-c3ccccn3)nc12 |
| 25 to 50 | Cc1c(C(=O)Nc2nnc(-c3ccccn3)[nH]2)cnn1-c1ccc(C(F)(F)F)cn1 |
| 25 to 50 | CCc1cc(NNC(=O)c2ccc(C)s2)nc(-c2ccccn2)n1 |
| 25 to 50 | Oc1nc(-c2ccccn2)nc2[nH]cnc12 [drawing 2696] |
| 51 to 75 | COc1cc2c(cc1OC)CCN(C(=O)c1csc3c(O)nc(-c4ccccn4)nc13)CC2 [drawing 2691] |
| 25 to 50 | O=C1COc2c(cccc2C(=O)Nc2nnc(-c3ccccn3)[nH]2)N1 |
| 25 to 50 | Nc1nc(-c2ccccn2)nc2sccc12 [drawing 2821] |
| 25 to 50 | OC[C@H]1C=C[C@@H](Nc2nc(-c3ccccn3)nc3c2CCC3)C1 |

Same assay, conditions: 20 μM; read-out: KRas G12D Q61H % Inh.

| Structure (SMILES) | inhibition at 20 µM [%] |
| --- | --- |
| O=C(Nc1nc(-c2ccccn2)cs1)C1COc2ccccc2O1 (stereo not drawn) [drawing 2566] | 51 to 75 |
| O=C(Nc1nnc(-c2ccccn2)[nH]1)C1CCCN(c2ncccn2)C1 (stereo not drawn) [drawing 2514] | 51 to 75 |
| O=c1nc(-c2ccccn2)[nH]c2scc(-c3cccs3)c12 [drawing 2583] | 51 to 75 |
| COc1ccc(-c2csc3[nH]c(-c4ccccn4)nc(=O)c23)cc1 [drawing 2582] | 51 to 75 |
| CCCCSc1nc(-c2cccs2)c(C(=O)C(F)(F)F)cc1C#N [drawing 2618] | 51 to 75 |
| O=C(Nc1nnc(-c2ccccn2)[nH]1)C1=NOC(c2ccccc2)C1 (stereo not drawn) [drawing 2544] | 51 to 75 |

Results, then the molecule that gave them:

| inhibition at 20 µM [%] | Structure (SMILES) |
| --- | --- |
| 51 to 75 | CC(COCc1ccccc1)C(=O)Nc1nnc(-c2ccccn2)[nH]1 (stereo not drawn) [drawing 2517] |
| 51 to 75 | N#Cc1ccc(OCC(=O)Nc2nnc(-c3ccccn3)[nH]2)cc1 |
| 25 to 50 | Cc1c(C(=O)N(C)C)sc2[nH]c(-c3ccccn3)nc(=O)c12 [drawing 2590] |
| 51 to 75 | CC(C)c1nc(CC(=O)Nc2nnc(-c3ccccn3)[nH]2)cs1 [drawing 2480] |
| 51 to 75 | Cc1ccc(C(=O)Nc2nnc(-c3ccccn3)[nH]2)cc1S(C)(=O)=O [drawing 2461] |
| 51 to 75 | O=C(Nc1nnc(-c2ccccn2)[nH]1)c1ccn(-c2cccc(F)c2)n1 [drawing 2468] |
| 51 to 75 | COc1ccc(COCC(=O)Nc2nnc(-c3ccccn3)[nH]2)cc1 [drawing 2563] |
| 51 to 75 | O=C(Cc1ccccc1)NCCC(=O)Nc1nnc(-c2ccccn2)[nH]1 [drawing 2495] |
| 51 to 75 | O=C(Nc1nnc(-c2ccccn2)[nH]1)c1cccc(N2CCCS2(=O)=O)c1 [drawing 2540] |
| 51 to 75 | CCN(CC)S(=O)(=O)c1cc(C)c(C)c(NC(=O)CCc2c(C)nc(-c3ccccn3)nc2O)c1 [drawing 2602] |
| 51 to 75 | O=C(Cn1c(=O)[nH]c2ccccc21)Nc1nnc(-c2ccccn2)[nH]1 [drawing 2536] |
| 51 to 75 | COc1ccc2c(ccn2CC(=O)Nc2nnc(-c3ccccn3)[nH]2)c1 [drawing 2470] |
| 51 to 75 | O=C(Nc1nc(-c2ccccn2)cs1)c1ccc2nccnc2c1 [drawing 2570] |
| 25 to 50 | Cc1nc(-c2ccccn2)nc(O)c1CCC(=O)NC1CCc2ccccc21 (stereo not drawn) [drawing 2597] |
| 51 to 75 | O=C(Nc1nnc(-c2ccccn2)[nH]1)C1Cc2ccccc2O1 (stereo not drawn) [drawing 2509] |

Same assay, conditions: at 20 μM; read-out: KRas G12D Q61H % Inh.

| inhibition at 20 µM [%] | Structure (SMILES) |
| --- | --- |
| 51 to 75 | COC(=O)c1c(C)sc2nc(-c3ccccn3)nc(N)c12 [drawing 3804] |
